Laboratory results reported in patent US20240109891A1, “NOVEL SUBSTITUTED TRICYCLIC AZA-HETEROCYCLES AS SOS1 INHIBITORS” (Viva Star Biosciences (Suzhou) Co., Ltd., priority 2021, published 2024).

Key:
[1] = target: T1, KRAS G12D and SOS1 proteins (Homo sapiens, UniProt Q07889); assay: KRAS-G12D/SOS1 binding assay (HTRF); conditions: Tag1-SOS1 / Tag2-KRAS G12D, 10 μM GTP
T1 construct: purchased Cisbio 63ADK000CB17PEG
T1 sequence (Q07889 1-1333): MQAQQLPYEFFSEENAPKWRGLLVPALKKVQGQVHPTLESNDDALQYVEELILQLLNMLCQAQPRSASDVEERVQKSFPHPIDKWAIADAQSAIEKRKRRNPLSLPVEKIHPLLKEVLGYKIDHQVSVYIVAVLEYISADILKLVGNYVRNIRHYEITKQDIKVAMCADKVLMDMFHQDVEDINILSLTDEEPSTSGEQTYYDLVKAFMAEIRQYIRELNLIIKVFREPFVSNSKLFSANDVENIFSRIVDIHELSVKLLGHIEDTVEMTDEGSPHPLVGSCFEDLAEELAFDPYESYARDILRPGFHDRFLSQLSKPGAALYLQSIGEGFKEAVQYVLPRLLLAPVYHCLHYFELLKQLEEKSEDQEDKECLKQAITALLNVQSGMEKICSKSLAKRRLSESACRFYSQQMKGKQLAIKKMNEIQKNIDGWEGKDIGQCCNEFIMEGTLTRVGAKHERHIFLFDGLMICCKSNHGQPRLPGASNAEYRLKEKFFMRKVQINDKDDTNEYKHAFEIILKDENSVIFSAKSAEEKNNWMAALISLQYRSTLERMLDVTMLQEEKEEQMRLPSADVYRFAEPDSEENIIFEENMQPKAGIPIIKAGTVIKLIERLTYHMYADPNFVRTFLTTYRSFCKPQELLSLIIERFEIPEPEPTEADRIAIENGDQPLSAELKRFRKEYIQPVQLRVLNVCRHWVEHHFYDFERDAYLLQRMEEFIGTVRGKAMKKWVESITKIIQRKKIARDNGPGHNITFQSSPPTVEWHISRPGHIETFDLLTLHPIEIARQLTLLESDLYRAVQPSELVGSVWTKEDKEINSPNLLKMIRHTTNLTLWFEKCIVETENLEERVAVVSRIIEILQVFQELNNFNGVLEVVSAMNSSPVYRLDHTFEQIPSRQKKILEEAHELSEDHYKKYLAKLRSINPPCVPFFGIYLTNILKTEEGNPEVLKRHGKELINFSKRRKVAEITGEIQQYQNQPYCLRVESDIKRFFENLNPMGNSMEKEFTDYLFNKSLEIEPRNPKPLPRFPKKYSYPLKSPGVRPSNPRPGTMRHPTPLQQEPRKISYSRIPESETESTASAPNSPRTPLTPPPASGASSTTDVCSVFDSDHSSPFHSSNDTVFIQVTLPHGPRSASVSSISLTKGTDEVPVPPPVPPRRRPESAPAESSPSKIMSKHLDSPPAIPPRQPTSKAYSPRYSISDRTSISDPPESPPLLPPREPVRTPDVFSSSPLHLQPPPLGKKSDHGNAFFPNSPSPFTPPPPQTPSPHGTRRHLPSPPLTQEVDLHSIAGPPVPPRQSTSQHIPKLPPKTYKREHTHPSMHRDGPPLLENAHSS

[2] = target: T2, KRAS-WT and SOS1 proteins (Homo sapiens, UniProt Q07889); assay: KRAS-WT/SOS1 binding assay (HTRF); conditions: Tag1-SOS1 / Tag2-KRAS-WT, 10 μM GTP, read-out: Activity Data in Kras: SOS1 Assay, Wild Type
T2 construct: purchased Cisbio 63ADK000CB15PEG
T2 sequence (Q07889 1-1333): T1 sequence (Q07889 1-1333)

Row | SMILES | IC50 [1] | IC50 [2]
1 | C[C@@H](Nc1nc2ccnn2c2cc(=O)n(C3CC(F)(F)C3)cc12)c1cc(F)cc(C(F)(F)CO)c1 [Example 73, (R)-5-((1-(3-(1,1-difluoro-2-hydroxyethyl)-5-fluorophenyl)ethyl)amino)-7-(3,3-difluorocyclobutyl)pyrazolo[1,5-a]pyrido[3,4-e]pyrimidin-8(7H)-one] | < 0.1 µM | < 0.1 µM
2 | COc1cc2c(cc1C1CCN(S(C)(=O)=O)CC1)c(N[C@H](C)c1cccc3c1CCC3(F)F)nc1ccnn12 [Example 53, (R)-N-(1-(1,1-difluoro-2,3-dihydro-1H-inden-4-yl)ethyl)-8-methoxy-7-(1-(methylsulfonyl)piperidin-4-yl)pyrazolo[1,5-a]quinazolin-5-amine] | 0.1 to 0.5 µM | 0.1 to 0.5 µM
3 | C[C@@H](Nc1nc(C(F)(F)F)nc2c1cc(-c1ccc(=O)n(C)c1)c1c2cnn1C)c1cc(F)cc(C(F)(F)CO)c1 [Example 33, (R)-5-(4-((1-(3-(1,1-difluoro-2-hydroxyethyl)-5-fluorophenyl)ethyl)amino)-7-methyl-2-(trifluoromethyl)-7H-pyrazolo[3,4-h]quinazolin-6-yl)-1-methylpyridin-2(1H)-one] | 0.1 to 0.5 µM | 0.1 to 0.5 µM
4 | C[C@@H](Nc1nc2ccnn2c2cc(=O)n([C@H]3CCOC3)cc12)c1cccc2c1CCC2(F)F [Example 71, 5-(((R)-1-(1,1-difluoro-2,3-dihydro-1H-inden-4-yl)ethyl)amino)-7-((S)-tetrahydrofuran-3-yl)pyrazolo[1,5-a]pyrido[3,4-e]pyrimidin-8(7H)-one] | < 0.1 µM | < 0.1 µM
5 | Cc1nc(N[C@H](C)c2cccc3c2CCC3(F)F)c2cc(O[C@H]3CCOC3)c3nncn3c2n1 [Example 19, N-((R)-1-(1,1-difluoro-2,3-dihydro-1H-inden-4-yl)ethyl)-2-methyl-6-(((S)-tetrahydrofuran-3-yl)oxy)-[1,2,4]triazolo[4′,3′:1,6]pyrido[2,3-d]pyrimidin-4-amine] | < 0.1 µM | < 0.1 µM
6 | Cc1nc(N[C@H](C)c2cccc(C(F)(F)F)c2)c2cc(O[C@H]3CCOC3)c3nncn3c2n1 [Example 17, 12-methyl-7-(oxolan-3-yloxy)-N-[(1R)-1-[3-(trifluoromethyl)phenyl]ethyl]-2,4,5,11,13-pentaazatricyclo[7.4.0.0^{2,6}]trideca-1(9),3,5,7,10,12-hexaen-10-amine] | 0.1 to 0.5 µM | 0.1 to 0.5 µM
7 | CC(=O)N1CCC(c2cc3c(N[C@H](C)c4cccc(C(F)(F)CO)c4)nc(C)nc3n3cnnc23)CC1 [Example 12, (R)-1-(4-(4-((1-(3-(1,1-difluoro-2-hydroxyethyl)phenyl)ethyl)amino)-2-methyl-[1,2,4]triazolo[4′,3′:1,6]pyrido[2,3-d]pyrimidin-6-yl)piperidin-1-yl)ethan-1-one] | < 0.1 µM | < 0.1 µM
8 | Cc1nc(N[C@H](C)c2cccc(C(F)(F)CO)c2)c2cc(O[C@H]3CCN(C)C3)c3c(cnn3C)c2n1 [Example 41, 2-(3-((R)-1-((2,7-dimethyl-6-(((S)-1-methylpyrrolidin-3-yl)oxy)-7H-pyrazolo[3,4-h]quinazolin-4-yl)amino)ethyl)phenyl)-2,2-difluoroethan-1-ol] | < 0.1 µM | < 0.1 µM
9 | Cc1nc(N[C@H](C)c2cccc(C(F)(F)CO)c2)c2cc(-c3ccc(=O)[nH]c3)c3[nH]ncc3c2n1 [Example 28, (R)-5-(4-((1-(3-(1,1-difluoro-2-hydroxyethyl)phenyl)ethyl)amino)-2-methyl-7H-pyrazolo[3,4-h]quinazolin-6-yl)pyridin-2(1H)-one] | < 0.1 µM | < 0.1 µM
10 | Cc1nc(N[C@H](C)c2cccc(C(F)(F)CO)c2)c2cc(N3CCC(O)C3)c3c(cnn3C)c2n1 (stereo partly drawn) [Example 42, 1-(4-{[(1R)-1-[3-(1,1-difluoro-2-hydroxyethyl)phenyl]ethyl]amino}-2,7-dimethyl-7H-pyrazolo[3,4-h]quinazolin-6-y)pyrrolidin-3-ol] | < 0.1 µM | < 0.1 µM
